In brackets after ≈: the same amount, converted by molar mass.
Legend:
[1] = Inhibition of MEK-mediated phosphorylation of myelin basic protein by kinase cascade assay
[2] = Inhibition of MEK-mediated ERK phosphorylation in PDGF-stimulated mouse K-Balb cells treated as single oral dose preincubated for 24 hrs before PDGF challenge by whole cell assay
[3] = Inhibition of MEK-mediated ERK phosphorylation in PDGF-stimulated mouse K-Balb cells treated as single oral dose preincubated for 1 hr before PDGF challenge by whole cell assay
[4] = Aqueous solubility in phosphate buffer at pH 6.5; assay type: physicochemical
[5] = Inhibition of MEK-stimulated ERK phosphorylation in PDGF-stimulated mouse C26 cells treated as single oral dose before PDGF challenge by whole cell assay; assay type: cell-based
[6] = Distribution coefficient, log D of the compound; assay type: physicochemical; details: octanol/water
[7] = Permeability across human Caco-2 cells; assay type: ADME, cell-based; details: read-out: permeability
[8] = Antitumor activity in mouse C26 cells xenografted mouse assessed as 100% reduction in tumor mass at 75 mg/kg/treatment, po dosed thrice a day after 14 days; assay type: functional; parameters: scale not given: the % may be the effect or the level left
[9] = Metabolic stability in human liver microsomes; assay type: ADME, Microsome
[10] = Antitumor activity in mouse C26 cells xenografted mouse assessed as tumor growth delay at 75 mg/kg/treatment, po dosed thrice a day after 14 days relative to control; assay type: functional
[11] = Antitumor activity in mouse C26 cells xenografted mouse assessed as 50% reduction in tumor mass at 300 mg/kg/treatment, po dosed thrice a day after 14 days; assay type: functional; parameters: scale not given: the % may be the effect or the level left
Mus musculus [12] = assay: Inhibition of MEK-mediated ERK phosphorylation in mouse C26 cells xenografted mouse at 100 mg/kg, po after 1 day; assay type: functional; details: C26, 24 h
[13] = Antitumor activity in mouse C26 cells xenografted mouse assessed as tumor growth delay at 300 mg/kg/treatment, po dosed thrice a day after 14 days relative to control; assay type: functional
[14] = Antitumor activity in mouse C26 cells xenografted mouse assessed as 100% reduction in tumor mass at 300 mg/kg/treatment, po dosed thrice a day after 14 days; assay type: functional; parameters: scale not given: the % may be the effect or the level left
[15] = Metabolic stability in human hepatocytes; assay type: ADME, cell-based, Liver, Hepatocyte
[16] = Antitumor activity in mouse C26 cells xenografted mouse assessed as 50% reduction in tumor mass at 75 mg/kg/treatment, po dosed thrice a day after 14 days; assay type: functional; parameters: scale not given: the % may be the effect or the level left
[17] = Antitumor activity in mouse C26 cells xenografted mouse assessed as tumor growth delay at 1.6 mg/kg/treatment, po qd after 14 days relative to control; assay type: functional
[18] = Antitumor activity in mouse C26 cells xenografted mouse assessed as 100% reduction in tumor mass at 1.6 mg/kg/treatment, po qd after 14 days; assay type: functional; parameters: scale not given: the % may be the effect or the level left
[19] = Toxicity in mouse assessed as maximum tolerated dose; assay type: organism-based; details: in vivo
[20] = Antitumor activity in mouse C26 cells xenografted mouse assessed as 50% reduction in tumor mass at 1.6 mg/kg/treatment, po qd after 14 days; assay type: functional; parameters: scale not given: the % may be the effect or the level left
[21] = Antitumor activity in mouse C26 cells xenografted mouse assessed as 100% reduction in tumor mass at 25 mg/kg/treatment, po qd after 14 days; assay type: functional; parameters: scale not given: the % may be the effect or the level left
[22] = Antitumor activity in mouse C26 cells xenografted mouse assessed as 50% reduction in tumor mass at 25 mg/kg/treatment, po qd after 14 days; assay type: functional; parameters: scale not given: the % may be the effect or the level left
Mus musculus [23] = assay: Inhibition of MEK-mediated ERK phosphorylation in mouse C26 cells xenografted mouse at 12.5 mg/kg, po after 1 day; assay type: functional; details: C26, 24 h
Mus musculus [24] = assay: Inhibition of MEK-mediated ERK phosphorylation in mouse C26 cells xenografted mouse at 50 mg/kg, po after 1 day; assay type: functional; details: C26, 24 h
[25] = Antitumor activity in mouse C26 cells xenografted mouse assessed as tumor growth delay at 25 mg/kg/treatment, po qd after 14 days relative to control; assay type: functional
[26] = Antitumor activity in mouse C26 cells xenografted mouse assessed as minimal effective dose; assay type: functional; details: read-out: MED

| Compound | IC50 [1] | IC50 [2] | IC50 [3] | further results |
| --- | --- | --- | --- | --- |
| O=C(O)c1ccccc1Nc1cccc(I)c1 | > 10 µM | – | – | – |
| CCONC(=O)c1ccc(F)c(F)c1Nc1ccc(I)cc1C | 0.02 µM | 0.047 µM | 0.00418 µM | – |
| Cc1cc(I)ccc1Nc1cc(F)ccc1C(=O)O | 0.015 µM | – | – | – |
| CONC(=O)c1ccc(F)cc1Nc1ccc(I)cc1C | 0.026 µM | 0.05 µM | 0.0118 µM | – |
| O=C(NOCCO)c1ccc(F)c(F)c1Nc1ccc(I)cc1Cl | – | – | – | solubility [4]: < 1 µg/mL; IC50 [5]: 0.0035 µM |
| Cc1cc(I)ccc1Nc1c(C(=O)NOCC2CC2)ccc(F)c1F | 0.007 µM | 0.172 µM | 0.00648 µM | – |
| Cc1cc(I)ccc1Nc1c(C(=O)NOCC2CC2)cc(Br)c(F)c1F | 0.0078 µM | 0.113 µM | 0.0264 µM | – |
| Cc1cc(I)ccc1Nc1c(C(=O)NOCC2CCCC2)cc(Br)c(F)c1F | 0.023 µM | 0.661 µM | 0.119 µM | – |
| Cc1cc(I)ccc1Nc1c(C(=O)NOCC2CCCCC2)cc(Br)c(F)c1F | 0.048 µM | 1.78 µM | 1.14 µM | – |
| CCCONC(=O)c1ccc(F)c(F)c1Nc1ccc(I)cc1C | 0.018 µM | 0.136 µM | 0.00442 µM | – |
| Cc1cc(I)ccc1Nc1c(C(=O)NOC(C)C)ccc(F)c1F | 0.035 µM | 0.232 µM | 0.00818 µM | – |
| Cc1cc(I)ccc1Nc1cc(F)ccc1C(=O)NOCC1CC1 | 0.027 µM | 0.257 µM | 0.0235 µM | – |
| O=C(NOCC1CC1)c1ccc(F)cc1Nc1ccc(I)cc1Cl | 0.013 µM | 0.0846 µM | 0.0549 µM | – |
| Cc1cc(I)ccc1Nc1c(C(=O)O)ccc(F)c1F | 0.0058 µM | – | – | – |
| Cc1cc(I)ccc1Nc1ccc(F)cc1C(=O)O | 0.166 µM | – | – | – |
| Cc1cc(I)ccc1Nc1cc(Cl)ccc1C(=O)O | 0.554 µM | – | – | – |
| Cc1cc(I)ccc1Nc1ccccc1C(=O)O | 0.39 µM | – | – | – |
| O=C(O)c1ccccc1Nc1ccccc1I | > 10 µM | – | – | – |
| O=C(O)c1ccccc1Nc1ccc(I)cc1 | 3.05 µM | – | – | – |
| O=C(NOC[C@@H](O)CO)c1ccc(F)c(F)c1Nc1ccc(I)cc1F | – | – | – | solubility [4]: 255 µg/mL (≈ 529 µM) |
| O=C(NOCC1CC1)c1ccc(F)c(F)c1Nc1ccc(I)cc1F | – | – | – | solubility [4]: < 1 µg/mL; IC50 [5]: 0.001 µM |
| O=C(NO)c1ccc(F)cc1Nc1ccc(I)cc1Cl | 0.0028 µM | 0.645 µM | 0.00159 µM | – |
| Cc1cc(I)ccc1Nc1c(C(=O)NOCC2CCC2)cc(Br)c(F)c1F | 0.01 µM | 0.326 µM | 0.0758 µM | – |
| Cc1cc(I)ccc1Nc1cc(F)ccc1C(=O)NO | 0.00796 µM | 0.624 µM | 0.00355 µM | – |
| Cc1cc(I)ccc1Nc1c(C(=O)O)cc(F)c(F)c1F | 0.0068 µM | – | – | – |
| Cc1cc(I)ccc1Nc1cccc(F)c1C(=O)O | 0.518 µM | – | – | – |
| O=C(NOCC(O)CO)c1ccc(F)c(F)c1Nc1ccc(I)cc1Cl (racemic) | – | – | – | IC50 [5]: 0.019 µM |
| O=C(NOCC(O)CO)c1ccc(F)c(F)c1Nc1ccc(I)cc1F (racemic) | – | – | – | solubility [4]: 147 µg/mL (≈ 305 µM) |
| O=C(NOCC1CC1)c1ccc(F)c(F)c1Nc1ccc(I)cc1Cl [CI-1040] | 0.0023 µM | 0.0354 µM | 0.00245 µM | logD [6]: > 5; Papp [7]: 16.2 ×10⁻⁶ cm/s; Activity [8]: 10%; IC50 [5]: 0.035 µM; half-life [9]: 0.192 h; Activity [10]: 10.8 days; Activity [11]: 30%; inhibition in vivo at 100 mg/kg (Mus musculus [12]): 14%; Activity [13]: 12.7 days; Activity [14]: 70%; half-life [15]: 1.67 h; Activity [16]: 20% |
| O=C(NOC[C@H](O)CO)c1ccc(F)c(F)c1Nc1ccc(I)cc1F [MIRDAMETINIB] | – | – | – | solubility [4]: 190 µg/mL (≈ 394 µM); logD [6]: 4.6; Papp [7]: 72.7 ×10⁻⁶ cm/s; half-life [9]: > 1.67 h; Activity [17]: 7.7 days; Activity [18]: 20%; MTD [19]: 25 mg/kg; Activity [20]: 0%; Activity [21]: 70%; Activity [22]: 30%; inhibition in vivo at 12.5 mg/kg (Mus musculus [23]): 59%; inhibition in vivo at 50 mg/kg (Mus musculus [24]): 84%; half-life [15]: 6.17 h; Activity [25]: 15.4 days; minimal effective dose [26]: 1.6 mg/kg |
